# Source: PubChem BioAssay AID1159565 (GlaxoSmithKline (GSK), 2015)
# Activity calls are given as the source filed them. How the calls were made is not given here.
# System: T. cruzi-infected H9C2 cardiomyocytes, high-content imaging
# Assay: anti-T. cruzi activity in infected cardiomyocytes – imaging, H9C2 host cardiomyocytes, host toxicity (AID 1159565);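 further: infected cells incubated 72 h after plating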
# [1] = measured here: H9C2 host cell toxicity
# [2] = measured here: amastigotes per cell
Compound,IC50,IC50 [1] [µM],IC50 [2] [µM]
Cc1cc(=O)n2nc(Oc3ccc(C#N)cc3Cl)sc2n1,32 µM,32,25
O=C(CN1CCN(c2ccccn2)CC1)Nc1cc(S(=O)(=O)N2CCCCCC2)ccc1Cl,7.9 µM,> 50,6.3
Nc1ncnc2c1ncn2[C@@H]1O[C@H](CO)C[C@H]1O,2 µM,5,1.3
O=C(Cc1ccccc1)Nc1ccccc1C(=O)Nc1nccs1,> 50 µM (inactive),> 50,> 50
COc1cc(Nc2nccc(Nc3onc(C)c3C)n2)cc(S(=O)(=O)C2CCOCC2)c1,25 µM,10,13
O=[N+]([O-])c1ccc(-c2nnn(-c3cccnc3)n2)o1,> 50 µM (inactive),6.3,0.063
NC(=O)c1ccccc1Nc1nc(NC2CCCCC2)nc2[nH]ccc12,1 µM,25,1
O=C(c1cc2cc(Cl)ccc2[nH]1)N1CCCCC1c1cccnc1 (stereo unspecified),0.13 µM,32,0.13
CCCCn1nnnc1CSc1nc(C)cc(C)c1C#N,0.2 µM,> 50,0.1
O=c1cc(NCCCNCc2cc(C(F)(F)F)cs2)[nH]c2ccccc12,> 50 µM (inactive),32,5
COc1ccc(C(=O)NC2CCN(CCn3c(=O)ccc4ncc(F)cc43)CC2)cc1Cl,0.63 µM,> 50,0.32
c1ccc(CCNCc2cncc3nc(-c4cnccn4)n(C4CCCCC4)c23)cc1,0.13 µM,> 50,0.13
CCOc1ccccc1C(=O)Nc1nnc(-c2ccc3c(c2)OCO3)s1,0.079 µM,> 50,0.063
CC(C)S(=O)(=O)c1ccc(-c2cnc(N)c3cc(-c4ccnc(N)n4)ccc23)cc1,40 µM,0.5,13
O=c1[nH]ccc2ccc(-c3ccncc3)cc12,0.25 µM,> 50,0.25
c1ccc(-c2nc(NC3CCCC3)c3ccccc3n2)nc1,0.79 µM,0.5,2
COc1ccc(-c2ccc3nnc(-c4ccc(O)c(OC)c4)n3c2)cn1,3.2 µM,> 50,2
COc1ccc2nccc([C@H](O)CN3CC[C@H](NC(=O)c4ccc(Br)cc4)[C@@H](O)C3)c2n1,1.6 µM,2,0.16
N#Cc1cccc(CN2CCC(c3nc(-c4ccc(C(F)(F)F)nc4)no3)CC2)c1,2 µM,> 50,2.5
c1cncc(CN(Cc2ccco2)Cc2cn[nH]c2-c2cccs2)c1,0.05 µM,> 50,0.04
NCc1ccc2c(Cl)cc(Cl)c(O)c2n1,2 µM,6.3,1.3
CC(C)Oc1ccc(C(=O)Nc2ccc(N3CCOCC3)c(Cl)c2)cc1,1.3 µM,> 50,1.3
O=c1ccc2ccc(F)c3c2n1C[C@H]3CN1CCN(CC(O)c2cc3c(cn2)OCS3)CC1 (stereo partly specified),0.63 µM,> 50,0.32
C=CCOCC1Cn2nc([N+](=O)[O-])nc2O1 (stereo unspecified),1.3 µM,> 50,0.63

Compound,IC50,IC50 [1] [µM],IC50 [2] [µM]
N#Cc1cc(-c2ccnc(Nc3cccc(CN4CCOCC4)c3)n2)ccc1NCCN,32 µM,7.9,16
Cc1ccc(NC(=O)c2ccnc(N3CCCC3)c2)cc1-c1cc(C(N)=O)ccc1C,10 µM,> 50,3.2
Oc1cccnc1-c1n[nH]c(Cc2ccccc2)n1,7.9 µM,16,6.3
CCc1ccc2nc(NC(=O)c3cc(N4CCOCC4)ccn3)sc2c1,0.79 µM,40,0.5
O=c1[nH]c(C=Cc2cccc(OCCOc3ccccc3)c2)nc(O)c1[N+](=O)[O-],0.2 µM,> 50,0.16
CN(Cc1nc2ccc(C(=O)NCC3CCCCC3)cc2[nH]1)C1CCCc2cccnc21 (stereo unspecified),0.63 µM,5,0.32
O=C(Nc1nc(-c2ccccn2)cs1)C1CCc2ccccc2C1 (stereo unspecified),2.5 µM,4,2
CC(C)c1sc(Cl)nc1C(=O)NCCc1nc(C(=O)Nc2ccc3c(c2)OCO3)cs1,1 µM,> 50,0.63
CC(CCc1ccccc1)NC(=O)CN(Cc1ccccn1)Cc1ccccn1 (stereo unspecified),10 µM,> 79,3.2
COc1cccc(C(=O)[C@H]2C[C@@H]2CN(Cc2cccnc2)Cc2cccnc2)c1,0.063 µM,> 50,0.05
COc1ccc(CN2CCCCC2c2nc(-c3cccnc3)no2)cc1 (stereo unspecified),0.79 µM,> 50,0.63
COc1ccc(C(=O)Nc2ccc(NC(=O)CO)cc2)cc1,> 50 µM (inactive),> 50,> 50
O=C(Cn1cnc2cc([N+](=O)[O-])ccc2c1=O)NCCc1ccc(Cl)cc1Cl,0.4 µM,> 50,0.2
Clc1cc(Br)ccc1OCCCCn1ccnc1,0.25 µM,25,0.32
COc1ccccc1C1CC(c2ccc(NS(C)(=O)=O)cc2)=NN1C(=O)c1cccs1 (stereo unspecified),> 50 µM (inactive),> 50,> 50
O=C1CSC(c2cccnc2)N1c1ccc(Cl)cc1Cl (stereo unspecified),0.25 µM,> 50,0.16
O=c1[nH]cnc2c([C@@H]3O[C@H](CO)[C@@H](O)[C@H]3O)[nH]nc12,0.5 µM,> 50,0.32
Cc1[nH]n2c(=O)c3c(nc2c1-c1ccc(F)cc1)CCCC3,2 µM,> 50,0.79
Cc1cc(Nc2cc(C3CC3)[nH]n2)nc(N2CCC[C@H]2C(N)=O)n1,0.063 µM,0.13,0.02
Cn1nccc1NC(=O)Cn1ccc(-c2ccncc2)n1,> 50 µM (inactive),> 50,> 50
Nc1nc(-c2ccccc2)cc(-c2nc3ncccc3[nH]2)n1,2 µM,13,1.6
Cc1nc(-c2nc(NCc3ccc(Cl)cc3)c3cccnc3c2O)n[nH]1,0.79 µM,25,1.3
CC(C)Nc1nc(Cl)nc2ccccc12,10 µM,7.9,4
CN(Cc1nc2ccccc2s1)C(=O)C=Cc1cc2ccccc2o1,0.79 µM,> 50,1

Compound,IC50,IC50 [1] [µM],IC50 [2] [µM]
O=S(=O)(NCC(c1cccnc1)N1CCN(c2ccc(F)cc2)CC1)c1cccs1 (stereo unspecified),0.13 µM,> 50,0.13
CN(Cc1cc2ccccc2s1)c1ncc2c(N)nc(N)nc2n1,3.2 µM,20,0.79
COc1cccc(CCNC(=O)C(c2cn[nH]c2)N2CCN(c3ccc(Cl)cc3)CC2)c1 (stereo unspecified),0.02 µM,40,0.016
COc1ccc(S(=O)(=O)Nc2ccc(CN3CCN(C(=O)c4cccc(C#N)c4)CC3)cc2)cc1,1 µM,> 50,0.79
Cc1ccc(Nc2nc(N)nc(CNC(c3nc4ccccc4[nH]3)C(C)C)n2)cc1 (stereo unspecified),7.9 µM,> 50,5
O=C(Nc1ccc(Br)c(Cl)c1)Nc1ccc2c(c1)OCO2,5 µM,> 50,2
Cc1ccc2onc(Nc3ccnc(Nc4cccc(S(C)(=O)=O)c4)n3)c2c1,0.63 µM,5,0.4
O=C(NC(c1ccc(Cl)cc1)c1cnccn1)C1CCN(C(=O)Nc2cccc(C(F)(F)F)c2)CC1 (stereo unspecified),0.63 µM,> 50,0.5
CC(c1ccc2c(c1)CCCC2)N(C)c1ncc2c(N)nc(N)nc2n1 (stereo unspecified),0.032 µM,10,0.01
CS(=O)(=O)c1cccc(CNC(=O)c2cncc(N3CCN(c4ccc(F)cc4)CC3)c2)c1,0.4 µM,> 50,0.25
O=C(Cc1ccc2c(c1)CCC2)Nc1n[nH]c(-c2ccccn2)n1,10 µM,> 50,10
CC(=O)Nc1nc(-c2cc(C)ccc2C)c(C)s1,0.2 µM,> 50,0.16
O=C(CN(Cc1ccccn1)Cc1ccccn1)NC1Cc2ccccc2C1,13 µM,> 79,6.3
O=C(CCCn1cnc([N+](=O)[O-])n1)Nc1cccc(Cl)c1,0.5 µM,> 50,0.16
O=C(NNC(=O)c1ccccn1)c1ccc(-c2ccccc2)cc1,1.6 µM,2,1.3
Cc1cc2cncn2c(C2CCCCN2C(=O)c2cccs2)n1 (stereo unspecified),0.063 µM,> 50,0.063
O=C(Nc1nc(-c2ccccn2)cs1)c1ccc(S(=O)(=O)N2CCCCC2)cc1,0.63 µM,2.5,0.4
CS(=O)(=O)c1ccccc1C(=O)N(Cc1ccccc1)c1ccccc1,> 50 µM (inactive),> 50,40
CCCn1c(NC(=O)CCn2cc(Br)cn2)nc2ccccc21,6.3 µM,25,2.5
Cc1nn(C2CCS(=O)(=O)C2)c(C)c1CN(C)C(=O)C=Cc1sc2ccccc2c1Cl (stereo unspecified),0.5 µM,> 50,0.32
Cc1ccc(C)c(-n2nnnc2Sc2nc([N+](=O)[O-])nn2C)c1,0.79 µM,> 50,0.25
CCOc1ccc(CC(=O)N2c3ccccc3CC2C(=O)NC)cc1 (stereo unspecified),> 50 µM (inactive),> 50,> 50
CNC(=O)C1Cc2ccccc2N1C(=O)Cc1ccccc1 (stereo unspecified),> 50 µM (inactive),> 50,> 50
Cc1nc(C(=O)Nc2ccc3c(c2)OCO3)nn1-c1ccc(Cl)cc1,1.6 µM,> 50,1
